Starred links: 1 amine or outer side, 2 acyl side, 3 side chain; linkers in the order of their positions; H or OH if unused. Non-standard residues stand in square brackets, D forms with d. Residues, ends and D or L forms follow the SMILES beside them. *: point of attachment. X1 = CC(N[*:1])C(=O)C(F)(F)C(=O)[*:2]; Boc = CC(C)(C)OC(=O)*
Experiments:
[1] = tested on: BPAE co-culture clones (cortical stem cells); test: Inhibition of Notch activation in endothelial co-cultured cortical stem cell clones; format: cell-based, mouse; conditions: BPAE co-culture clones treated for 6 hours, 50 μM, vs DMSO vehicle
Procedure: γ-secretase inhibitor II (Calbiochem, 50 μM) in DMSO was added to co-cultured cells after 4 days for 6 hours. The same amount of DMSO was used as vehicle control. The cells were then fixed and stained for β-tubulin III and double-labelled for Nestin or β-catenin, and the stained cells were quantified.

[2] = tested on: cortical stem cell clones; test: Clonal growth of cortical stem cells with added soluble growth factors (without feeder cells); format: cell-based, mouse; conditions: for duplication of the effect of endothelial co-culture on clonal growth: factor added at 10-50 ng/ml to serum-free medium with FGF2, no feeder cells
Procedure: Embryonic cerebral cortices and adult SVZ were dissected and dissociated as described (18-20). Single cells were plated into poly-l-lysine-coated 6-well plates (Costar) at clonal density (2000-4000 cells/well) and cultured in basal serum-free medium consisting of DMEM, B27, N2, NAC and 10 ng/ml FGF2 (19,20). To test the effects of soluble growth factors (PDGF, CNTF, TGFβ, IGF1, IL1, IL6, G-CSF, M-CSF, GM-CSF, LIF, BDNF, Steel factor, VEGF or EGF), each factor was added to serum-free medium with FGF2 at a range of 10-50 ng/ml, and clonal growth (cell number and generation of neurons and glia) was assessed (without co-cultured feeder cells). LIF and VEGF were also tested in combination, each added at 10 ng/ml into serum-free medium, with and without FGF2.

Molecule | duplication of the effect of endothelial co-culture on clonal growth [2] | further results
CCC(C)C(NC(=O)C(NC(=O)OC(C)(C)C)C(C)C)C(=O)NC(C)C(=O)C(F)(F)C(=O)NC(C(=O)NC(C(=O)OC)C(C)CC)C(C)C (centres unmarked) [γ-secretase inhibitor II] (Boc-VI[X1]VI-OMe; configuration not given here) |  | β-catenin staining [1]: significantly decreased; β-tubulin-III staining [1]: significantly increased
EGF: soluble growth factor (NSDSECPLSHDGYCLHDGVCMYIEALDKYACNCVVGYIGERCQYRDLKWWELR; Epidermal growth factor; UniProt P01133 971-1023, looked up) | none duplicated the result we see from endothelial co-cultures | 
FGF2: soluble growth factor in basal serum-free medium | none duplicated the result we see from endothelial co-cultures | neural stem cell proliferation ([2]; FGF2 alone): promotes neural stem cell proliferation; neural stem cell self-renewal ([2]; FGF2 alone): cannot alone maintain their self-renewal
GM-CSF: soluble growth factor | none duplicated the result we see from endothelial co-cultures | 
IGF1: soluble growth factor | none duplicated the result we see from endothelial co-cultures | 
IL6: soluble growth factor | none duplicated the result we see from endothelial co-cultures | 
LIF: soluble growth factor | none duplicated the result we see from endothelial co-cultures | 
PDGF | none duplicated the result we see from endothelial co-cultures | 
Steel factor: soluble growth factor | none duplicated the result we see from endothelial co-cultures | 
TGFβ | none duplicated the result we see from endothelial co-cultures | 
VEGF | Neither factor, alone or in combination, duplicated the effect of endothelial factors | 
